Assay results from patent US10933002B2, “Preservation booster” (DSM IP ASSETS B.V., priority 2017, dated 2021).

Tested on: Escherichia coli
Experiment: antimicrobial efficacy in analogy to the regulatory challenge test method (NF EN ISO11930)
Assay type: cell-based
Conditions: 0.2 wt.-% test solution in physiological serum; 24 h after contamination; 22° C.; initial contamination 580000 cfu/ml
Experimental: The term “antimicrobial activity” (or “antimicrobial effect”) as used herein means a capability of killing and/or inhibiting the growth of pathogenic or unwanted bacteria, such as in particular Escherichia coli (Escherichia coli ATCC 8739). The applied measuring method is NF EN IS011930. The antimicrobial efficacy is assessed in analogy to the regulatory challenge test method (NF EN ISO11930). Thus, solutions of the respective active(s) in ethanol are prepared and further dissolved in physiological serum with 0.85 wt.-% NaCl in the concentrations as outlined in table 1 under sterile conditions. Samples containing phytantriol were solubilized in physiological serum supplemented with 10 wt.-% ethanol, samples containing erythrulose only were solubilized in physiological serum supplemented with 1 wt.-% ethanol. The solutions of the active(s) were deposed in 96-deep well plates (1.6 ml/well). The wells are contaminated with the Escherichia coli at 1.5*10^5 to 1*10^6 cfu/ml to obtain the initial contamination as outlined in table 1. After the contamination, each well was thoroughly mixed to ensure a homogeneous distribution of E. coli. Then each plate was incubated at 22° C. for 24 h. The counting of the (remaining) population is carried out 24 h after contamination.

O=C(CO)[C@H](O)CO (racemic) [erythrulose]
Escherichia coli colony count: 33700 cfu/ml | Log reduction: −1.236

CC(C)CCCC(C)CCCC(C)CCCC(C)(O)C(O)CO (stereo not shown) [phytantriol, 3,7,11,15-tetramethyl-1,2,3-hexadecanetriol]
Escherichia coli colony count: 1000 cfu/ml | Log reduction: −2.763
